Molecules are shown by their SMILES.

The target of test [1] is T1, Melatonin receptor type 1B (Homo sapiens, UniProt P49286).
T1 sequence (P49286 whole entry): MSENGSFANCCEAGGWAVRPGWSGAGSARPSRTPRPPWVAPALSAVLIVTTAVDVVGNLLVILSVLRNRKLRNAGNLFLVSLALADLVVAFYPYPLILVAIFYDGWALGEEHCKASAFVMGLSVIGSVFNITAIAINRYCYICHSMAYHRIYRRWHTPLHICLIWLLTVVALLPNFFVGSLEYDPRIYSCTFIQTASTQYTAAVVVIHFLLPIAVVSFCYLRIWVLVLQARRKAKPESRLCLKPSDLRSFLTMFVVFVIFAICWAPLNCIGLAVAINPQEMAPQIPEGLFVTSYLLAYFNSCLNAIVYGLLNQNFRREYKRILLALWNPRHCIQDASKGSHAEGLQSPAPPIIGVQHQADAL
As to the kind of experiment: Intrinsic activity at human MT2 receptor expressed in CHO cell membranes after 1 hr by [35S]GTPgammaS binding assay. It is filed as functional. In general terms: GTPγS is a poorly hydrolysed GTP analogue; its binding reports G protein activation.

Test [2] concerns the target T2, Melatonin receptor type 1A (Homo sapiens, UniProt P48039). Kind of test: Intrinsic activity at human MT1 receptor expressed in CHO cell membranes after 1 hr by [35S]GTPgammaS binding assay. It is filed as functional.
Test [3] concerns the target T1, Melatonin receptor type 1B. Kind of test: Displacement of 2-[125I]iodomelatonin from human MT2 receptor expressed in CHO cell membranes after 120 mins.
In test [4] the target is T2, Melatonin receptor type 1A. Kind of test: Displacement of 2-[125I]iodomelatonin from human MT1 receptor expressed in CHO cell membranes after 120 mins.
In test [5] the target is T3, 5-hydroxytryptamine receptor 2C (Homo sapiens, UniProt P28335).
T3 sequence (P28335 whole entry): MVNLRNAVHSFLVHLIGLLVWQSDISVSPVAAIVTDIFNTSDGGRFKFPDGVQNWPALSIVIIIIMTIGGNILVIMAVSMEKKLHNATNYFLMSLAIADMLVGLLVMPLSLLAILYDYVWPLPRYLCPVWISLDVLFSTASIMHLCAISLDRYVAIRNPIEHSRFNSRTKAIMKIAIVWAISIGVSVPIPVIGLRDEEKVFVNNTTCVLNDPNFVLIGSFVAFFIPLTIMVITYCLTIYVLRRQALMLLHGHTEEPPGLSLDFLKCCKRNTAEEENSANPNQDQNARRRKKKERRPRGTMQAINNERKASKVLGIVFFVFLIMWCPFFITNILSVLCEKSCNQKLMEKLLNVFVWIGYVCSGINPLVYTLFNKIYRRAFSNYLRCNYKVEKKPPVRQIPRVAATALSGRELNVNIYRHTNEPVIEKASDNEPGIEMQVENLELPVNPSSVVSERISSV
Kind of test: Binding affinity to 5-HT2C receptor (unknown origin).

For test [6], the species on record is Homo sapiens. Kind of test: Selectivity ratio of Ki for human MT1 receptor to Ki for human MT2 receptor.

T2 sequence (P48039 whole entry): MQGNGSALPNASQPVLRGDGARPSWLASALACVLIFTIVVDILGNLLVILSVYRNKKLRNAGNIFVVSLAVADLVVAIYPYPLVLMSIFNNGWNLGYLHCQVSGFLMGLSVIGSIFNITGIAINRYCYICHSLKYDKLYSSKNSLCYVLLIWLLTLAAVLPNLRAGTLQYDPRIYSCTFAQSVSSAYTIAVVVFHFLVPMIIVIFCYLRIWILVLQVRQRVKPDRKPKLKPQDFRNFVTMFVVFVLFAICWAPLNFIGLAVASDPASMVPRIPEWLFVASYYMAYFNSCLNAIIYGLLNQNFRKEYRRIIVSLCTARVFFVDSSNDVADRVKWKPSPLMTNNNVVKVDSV

With `COc1ccc2ccc3occ(CNC(=O)CF)c3c2c1`, the concentration giving a half-maximal response (EC50) in test [1] amounted to 3.4 nM; in test [2], 29 nM. Also, the Ki in test [3] is 2.1 nM; in test [4], 9.9 nM; in test [5], > 10000 nM.
With `CNC(=O)NCc1cc2c(ccc3ccc(OC)cc32)o1`, the Ki in test [5] was > 10000 nM.
As to `COc1ccc2ccc3oc(CCNC(=O)C4CC4)cc3c2c1`, the EC50 was 5.8 nM in test [1] and > 10000 nM in test [2]. Moreover, the figures for the Ki in test [3], in test [4] and in test [5] were 11 nM, 73 nM and > 10000 nM, respectively.
Take `COc1ccc2ccc3occ(CCNC(=O)C4CC4)c3c2c1`: the EC50 was determined as 3.2 nM in test [1] and 5.2 nM in test [2]. The Ki is 13.3 nM in test [3], 236 nM in test [4] and > 1000 nM in test [5].
In the case of `COc1ccc2ccc3oc(CNC(=O)C4CC4)cc3c2c1`, the EC50 was 0.98 nM in test [1] and 1 nM in test [2]. Also, the values for the inhibitory constant (Ki) in test [3], in test [4] and in test [5] were 0.6 nM, 1.9 nM and > 10000 nM, respectively.
For `COc1ccc2ccc3oc(CCNC(C)=O)cc3c2c1` the same measures were > 10000 nM, > 10000 nM, 1.7 nM, 10 nM and > 10000 nM.
The like results for `COc1ccc2ccc3oc(CNC(=O)CF)cc3c2c1` were, in that order, 1.1 nM, 9.5 nM, 0.7 nM, 5.7 nM and > 10000 nM.
As to `CCNC(=O)NCc1cc2c(ccc3ccc(OC)cc32)o1`, the EC50 in test [1] was 10 nM; in test [2], > 10000 nM. Further, the Ki in test [3] is 4.2 nM; in test [4] it was 17 nM; in test [5], > 10000 nM.
As for `COc1ccc2ccc3occ(CCNC(C)=O)c3c2c1`, the concentration for a half-maximal effect (EC50) amounted to 0.7 nM in test [1] and 4.6 nM in test [2]. Further, the Ki in test [3] worked out at 0.09 nM; in test [4], 2.8 nM; in test [5], 140 nM. The Ratio Ki in test [6] came to 31.
For the compound `CNC(=S)NCc1cc2c(ccc3ccc(OC)cc32)o1`, the Ki was 0.8 nM in test [3], 43 nM in test [4] and > 10000 nM in test [5].
As to `COc1ccc2ccc3occ(CNC(=O)C4CC4)c3c2c1`, the results for the EC50 in test [1] and in test [2] were 8.8 nM and 1 nM, respectively. Besides, the Ki in test [3] was 15 nM; in test [4], 20 nM; in test [5], > 10000 nM.
Take `CCNC(=S)NCc1cc2c(ccc3ccc(OC)cc32)o1`: the Ki in test [3] came to 7 nM; in test [4], 140 nM; in test [5] it was 730 nM.
As to `COc1ccc2ccc3oc(CNC(C)=O)cc3c2c1`, the EC50 in test [1] was 0.98 nM; in test [2] it was 7.7 nM. For the same compound, the Ki is 0.4 nM in test [3], 2.1 nM in test [4] and > 10000 nM in test [5].
Regarding `CCNC(=O)NCCc1cc2c(ccc3ccc(OC)cc32)o1`, the Ki is 46 nM in test [3], 210 nM in test [4] and > 10000 nM in test [5].
Consider `COc1ccc2ccc3occ(CNC(=O)C(C)C)c3c2c1`, for which the values for the EC50 in test [1] and in test [2] were 8.8 nM and 8.1 nM, respectively. The Ki was 24 nM in test [3], 158 nM in test [4] and > 10000 nM in test [5].
In the case of `CCNC(=O)NCCc1coc2ccc3ccc(OC)cc3c12`, the concentration for a half-maximal effect (EC50) in test [1] is 6.2 nM; in test [2], 75 nM. The Ki in test [3] is 226 nM; in test [4] it was 157 nM; in test [5] it was > 1000 nM.
The like results for `COc1ccc2ccc3occ(CNC(C)=O)c3c2c1` were, in that order, 1.4 nM, 4.8 nM, 0.7 nM, 4.6 nM and > 10000 nM.

As a reminder, the EC50 is the concentration needed to bring the measured effect to its halfway point. Read a low EC50 as a more potent agent. As a reminder, the Ki is the equilibrium dissociation constant of an inhibitor or competing ligand from its target.

Source of the values: ChEMBL document CHEMBL3758099, “Melatonergic ligands: Design, synthesis and pharmacological evaluation of novel series of naphthofuranic derivatives” (Eur J Med Chem, 2016).
